Test results reported in US20250214932A1, “T-TYPE CALCIUM CHANNEL MODULATORS COMPRISING AN AZASPIRONONANE CORE AND METHODS OF USE THEREOF” (Praxis Precision Medicines, Inc., priority 2022, published 2025).

molecular target: Human Cav3.1 (Homo sapiens (Human), UniProt O43497); experiment: Human Cav3.1 calcium channel patch clamp assay (SyncroPatch 384PE, HEK-293 natClytin/TASK1+Cav3.1 cell line); assay type: cell-based; details: patch clamp, HEK-293 natClytin/TASK1+Cav3.1 cells; class symbols; read-out: Human Cav3.1 IC50
Method: Pulse generation and data collection were performed with PatchController384 V1.3.0 and DataController384 V1.2.1 (Nanion Technologies). Off-line analysis was performed using Excel and Graphpad Prism (V 8.4.2) with complete data files uploaded to Dotmatics. The access resistance and apparent membrane capacitance were estimated using built-in protocols. Current was recorded in whole cell configuration from a population of cells. The cells were lifted, triturated, and resuspended at 800,000 cells/ml. The cells were allowed to recover in the cell hotel prior to experimentation. Currents were recorded at room temperature. The external solution contained the following (in mM): NaCl 80, NMDG 60, KCl 4, MgCl2 1, CaCl2 6, glucose 5 and HEPES 10 (pH=7.4, Osmolarity ˜300 mOsm). The extracellular solution was used as the wash, reference and compound delivery solution. […] The compound plate was created at 2× concentrated in the extracellular solution. The compound was diluted to 1:2 when added to the recording well. The amount of DMSO in the extracellular solution was held constant at the level used for the highest tested concentration. For the voltage clamp experiments on Cav3.1, data were sampled at 10 KHz. After establishment of the seal and the passage in the whole cell configuration, the cells were held at −120 mV. Cav3.1 current was evoked using a 100 ms step to −20 mV (to measure resting state block), followed by a 1600 ms step to −65 mV and a second 100 ms step to −20 mV (to measure voltage dependent block). The voltage protocol was applied every 15 seconds in the absence and in the presence of the compounds under investigation. […] Current amplitude (pA) was measured in the peak 1 and 2. The average of last 3 sweeps of each liquid period (vehicle, compound under investigation, full block) was calculated. Nickel-sensitive current was used to calculate the % of inhibition in the presence of the compound under investigation.
Pulse generation and data collection were performed with PatchController384 V1.3.0 and DataController384 V1.2.1 (Nanion Technologies). Off-line analysis was performed using Excel and Graphpad Prism (V 8.4.2) with complete data files uploaded to Dotmatics. The access resistance and apparent membrane capacitance were estimated using built-in protocols. Current was recorded in whole cell configuration from a population of cells.
The cells were lifted, triturated, and resuspended at 800,000 cells/ml. The cells were allowed to recover in the cell hotel prior to experimentation. Currents were recorded at room temperature. The external solution contained the following (in mM): NaCl 80, NMDG 60, KCl 4, MgCl2 1, CaCl2 6, glucose 5 and HEPES 10 (pH=7.4, Osmolarity ˜300 mOsm). The extracellular solution was used as the wash, reference and compound delivery solution.
The compound plate was created at 2× concentrated in the extracellular solution. The compound was diluted to 1:2 when added to the recording well. The amount of DMSO in the extracellular solution was held constant at the level used for the highest tested concentration. For the voltage clamp experiments on Cav3.1, data were sampled at 10 KHz. After establishment of the seal and the passage in the whole cell configuration, the cells were held at −120 mV. Cav3.1 current was evoked using a 100 ms step to −20 mV (to measure resting state block), followed by a 1600 ms step to −65 mV and a second 100 ms step to −20 mV (to measure voltage dependent block). The voltage protocol was applied every 15 seconds in the absence and in the presence of the compounds under investigation. […] Current amplitude (pA) was measured in the peak 1 and 2. The average of last 3 sweeps of each liquid period (vehicle, compound under investigation, full block) was calculated. Nickel-sensitive current was used to calculate the % of inhibition in the presence of the compound under investigation.

Sequence of Human Cav3.1 (O43497 whole entry): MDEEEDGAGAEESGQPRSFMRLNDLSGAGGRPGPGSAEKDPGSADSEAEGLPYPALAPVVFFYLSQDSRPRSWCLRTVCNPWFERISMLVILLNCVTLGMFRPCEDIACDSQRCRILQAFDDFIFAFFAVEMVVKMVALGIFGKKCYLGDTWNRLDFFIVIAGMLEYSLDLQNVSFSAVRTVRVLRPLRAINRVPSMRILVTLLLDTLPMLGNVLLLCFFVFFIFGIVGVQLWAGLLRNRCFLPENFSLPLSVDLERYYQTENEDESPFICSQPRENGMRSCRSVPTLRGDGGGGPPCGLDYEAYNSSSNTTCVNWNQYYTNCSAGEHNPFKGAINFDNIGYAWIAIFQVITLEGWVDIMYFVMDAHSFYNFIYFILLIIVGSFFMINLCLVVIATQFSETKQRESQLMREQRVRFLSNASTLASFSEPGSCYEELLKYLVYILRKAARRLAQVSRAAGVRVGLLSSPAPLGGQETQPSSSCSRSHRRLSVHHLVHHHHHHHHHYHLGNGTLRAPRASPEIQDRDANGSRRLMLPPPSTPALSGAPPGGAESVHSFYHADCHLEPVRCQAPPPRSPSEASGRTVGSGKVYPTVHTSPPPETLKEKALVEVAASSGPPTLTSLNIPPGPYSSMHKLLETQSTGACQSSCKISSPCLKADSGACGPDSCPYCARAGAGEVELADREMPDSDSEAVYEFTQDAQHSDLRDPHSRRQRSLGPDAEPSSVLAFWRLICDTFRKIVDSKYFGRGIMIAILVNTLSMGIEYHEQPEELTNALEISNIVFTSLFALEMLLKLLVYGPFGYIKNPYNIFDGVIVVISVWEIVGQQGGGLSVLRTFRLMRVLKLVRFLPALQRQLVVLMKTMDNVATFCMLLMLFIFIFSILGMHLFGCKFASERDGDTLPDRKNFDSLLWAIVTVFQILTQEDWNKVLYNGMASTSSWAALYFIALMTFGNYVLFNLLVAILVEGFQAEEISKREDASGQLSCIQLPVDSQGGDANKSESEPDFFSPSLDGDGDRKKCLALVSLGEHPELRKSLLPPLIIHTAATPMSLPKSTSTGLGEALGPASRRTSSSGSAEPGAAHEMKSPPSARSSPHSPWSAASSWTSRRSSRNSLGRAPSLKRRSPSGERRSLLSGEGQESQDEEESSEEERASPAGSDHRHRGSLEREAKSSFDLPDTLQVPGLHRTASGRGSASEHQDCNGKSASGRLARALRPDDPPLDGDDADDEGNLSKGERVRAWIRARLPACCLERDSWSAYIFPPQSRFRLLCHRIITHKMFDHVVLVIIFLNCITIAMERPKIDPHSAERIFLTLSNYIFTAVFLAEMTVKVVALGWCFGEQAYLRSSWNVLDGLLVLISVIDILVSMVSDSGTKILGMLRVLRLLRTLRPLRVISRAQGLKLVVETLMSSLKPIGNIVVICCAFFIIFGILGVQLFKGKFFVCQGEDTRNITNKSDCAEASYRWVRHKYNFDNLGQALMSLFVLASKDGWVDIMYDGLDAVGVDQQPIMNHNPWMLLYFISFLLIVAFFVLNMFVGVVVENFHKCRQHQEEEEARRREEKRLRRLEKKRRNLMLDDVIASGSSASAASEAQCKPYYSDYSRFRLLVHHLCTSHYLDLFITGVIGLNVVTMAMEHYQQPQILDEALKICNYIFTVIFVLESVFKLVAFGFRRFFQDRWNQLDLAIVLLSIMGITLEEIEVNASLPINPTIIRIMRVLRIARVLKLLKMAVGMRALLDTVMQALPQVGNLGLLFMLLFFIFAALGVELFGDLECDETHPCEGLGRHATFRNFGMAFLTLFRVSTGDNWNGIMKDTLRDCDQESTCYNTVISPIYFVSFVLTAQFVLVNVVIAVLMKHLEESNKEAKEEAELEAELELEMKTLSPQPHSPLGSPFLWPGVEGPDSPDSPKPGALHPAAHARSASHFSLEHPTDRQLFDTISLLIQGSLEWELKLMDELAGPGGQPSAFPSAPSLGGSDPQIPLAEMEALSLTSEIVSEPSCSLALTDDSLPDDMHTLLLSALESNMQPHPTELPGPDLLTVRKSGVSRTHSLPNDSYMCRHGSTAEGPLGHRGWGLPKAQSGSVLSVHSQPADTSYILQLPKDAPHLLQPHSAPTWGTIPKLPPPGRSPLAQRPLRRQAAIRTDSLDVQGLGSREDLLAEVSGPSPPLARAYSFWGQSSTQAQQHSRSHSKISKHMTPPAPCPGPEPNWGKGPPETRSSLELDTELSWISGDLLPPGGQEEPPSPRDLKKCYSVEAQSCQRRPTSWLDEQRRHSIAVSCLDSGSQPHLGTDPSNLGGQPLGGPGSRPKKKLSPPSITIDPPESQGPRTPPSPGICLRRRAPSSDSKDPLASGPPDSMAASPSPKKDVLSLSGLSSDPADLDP

Row | IC50 [nM] | SMILES
1 | 1000 to 10000 | Cc1cc(NC(=O)C2CCC3(CC2)CN(CC(=O)NC(C)(C)C)C3)nn1-c1ccccc1 [Example 6]
2 | < 1000 | CC(C)(NC(=O)CN1CC2(CCC(C(=O)Nc3cc(F)cc(Cl)c3)CC2)C1)C(F)(F)F [Example 16]
3 | < 1000 | O=C(Nc1cc(F)cc(Cl)c1)C1CCC2(CC1)CN(Cc1cccc(Cl)c1)C2 [Example 23]
4 | < 1000 | CN(C(=O)CN1CC2(CCC(C(=O)Nc3cc(F)cc(C(F)F)c3)CC2)C1)C1CCCC1 [Example 35]
5 | < 1000 | CC(C)(C)NC(=O)CN1CC2(CCC(C(=O)Nc3cccc(Cl)c3)CC2)C1 [Example 2]
6 | < 1000 | O=C(Nc1cc(F)cc(C(F)F)c1)C1CCC2(CC1)CN(CCC1CCCC1)C2 [Example 31]
7 | < 1000 | CCC(C)(C)NC(=O)CN1CC2(CCC(C(=O)Nc3cc(F)cc(C(F)F)c3)CC2)C1 [Example 27]

same assay, conditions: voltage dependent block (VDB); read-out: Cav3.1 (VDB) IC50

Row | IC50 [nM] | SMILES
8 | 2230 | N#CC1(CN2CC3(CCC(C(=O)Nc4cc(F)cc(Cl)c4)CC3)C2)CCOC1 (stereo not drawn) [Example 142]
9 | 373 | O=C(CN1CC2(CCC(CNC(=O)c3cc(F)cc(Cl)c3)CC2)C1)NC1(C(F)(F)F)CC1 [Example 143]
10 | 1260 | CC(C)(C#N)CN1CC2(CCC(C(=O)Nc3cc(F)cc(Cl)c3)CC2)C1 [Example 121]
11 | 569 | CC(C)(C)NC(=O)CN1CC2(CCC(CNC(=O)c3cccc(Cl)c3)CC2)C1 [Example 145]
12 | 750 | N#CC1(CN2CC3(CCC(C(=O)Nc4cc(F)cc(Cl)c4)CC3)C2)CCC1 [Example 122]
13 | 534 | O=C(CN1CC2(CCC(CNC(=O)c3cccc(Cl)c3)CC2)C1)NC1(C(F)(F)F)CC1 [Example 147]
14 | 723 | O=C(CN1CC2(CCC(C(=O)Nc3ccc(F)c(C(F)(F)F)c3)CC2)C1)NC1(C(F)(F)F)CC1 [Example 126]
15 | 357 | O=C(CN1CC2(CCC(C(=O)NC34CCC(CC3)CC4)CC2)C1)NC1(C(F)(F)F)CC1 [Example 148]
16 | 252 | CC(C)(C)CCN1CC2(CCC(C(=O)Nc3cc(F)cc(Cl)c3)CC2)C1 [Example 161]
17 | 404 | O=C(CN1CC2(CCC(C(=O)NC34CC5CC(CC(C5)C3)C4)CC2)C1)NC1(C(F)(F)F)CC1 [Example 151]
18 | 1260 | N#CC1(CN2CC3(CCC(C(=O)Nc4cc(Cl)cc(OC(F)F)c4)CC3)C2)CC1 [Example 137]
19 | 1200 | Cc1cc(Cl)cc(NC(=O)C2CCC3(CC2)CN(CC2(C#N)CCOCC2)C3)c1 [Example 141]

The remaining lines, values behind:

Row | SMILES | IC50 [nM]
20 | CN(C(=O)CN1CC2(CCC(C(=O)Nc3cc(F)cc(C(F)F)c3)CC2)C1)C1(C)CCC1 [Example 40] | 338
21 | O=C(CN1CC2(CCC(C(=O)Nc3cccc(Cl)c3)CC2)C1)NC1(C(F)(F)F)CCC1 [Example 105] | 204
22 | Cc1cc(NC(=O)C2CCC3(CC2)CN(CC(=O)NC(C)(C)C)C3)nn1-c1ccccc1 [Example 6] | 2280
23 | CC(C)(NC(=O)CN1CC2(CCC(C(=O)Nc3cc(F)cc(Cl)c3)CC2)C1)C(F)(F)F [Example 16] | 170
24 | O=C(Nc1cc(F)cc(Cl)c1)C1CCC2(CC1)CN(Cc1cccc(Cl)c1)C2 [Example 23] | 467
25 | CC(C)(C)NC(=O)CN1CC2(CCC(C(=O)Nc3cccc(OC(F)F)c3)CC2)C1 [Example 55] | 296
26 | CN(C(=O)CN1CC2(CCC(C(=O)Nc3cc(F)cc(C(F)F)c3)CC2)C1)C1CCCC1 [Example 35] | 320
27 | O=C(CN1CC2(CCC(C(=O)Nc3cc(F)cc(OC(F)F)c3)CC2)C1)NC1(C(F)(F)F)CC1 [Example 119] | 366
28 | O=C(Nc1cc(F)cc(C(F)F)c1)C1CCC2(CC1)CN(CCNC(=O)C1(C(F)(F)F)CC1)C2 [Example 50] | 284
29 | COc1cc(F)cc(NC(=O)C2CCC3(CC2)CN(CCS(=O)(=O)C(C)(C)C)C3)c1 [Example 88] | 1010
30 | CC(C)(NC(=O)CN1CC2(CCC(C(=O)Nc3cccc(OC(F)F)c3)CC2)C1)C(F)(F)F [Example 69] | 235
31 | O=C(Nc1cccc(Cl)c1)C1CCC2(CC1)CN(CCS(=O)(=O)c1ccccc1)C2 [Example 102] | 497
32 | CC1(NC(=O)CN2CC3(CCC(C(=O)Nc4cc(F)cc(Cl)c4)CC3)C2)CC1 [Example 59] | 146
33 | N#CC1(CN2CC3(CCC(C(=O)Nc4cc(F)cc(Cl)c4)CC3)C2)CCCCC1 [Example 98] | 352
34 | CC(C)(C)NC(=O)CN1CC2(CCC(C(=O)Nc3cccc(OC(F)(F)F)c3)CC2)C1 [Example 63] | 492
35 | O=C(Nc1cc(F)cc(C(F)F)c1)C1CCC2(CC1)CN(CC(=O)N1CCOCC13CC3)C2 [Example 42] | 703
36 | CC1(C(=O)NCCN2CC3(CCC(C(=O)Nc4cc(F)cc(C(F)F)c4)CC3)C2)CC1 [Example 49] | 723
37 | N#CC1(CN2CC3(CCC(C(=O)Nc4cccc(Cl)c4)CC3)C2)CCCCC1 [Example 103] | 544
38 | CC(C)(NC(=O)CN1CC2(CCC(C(=O)Nc3cccc(C(F)F)c3)CC2)C1)C(F)(F)F [Example 65] | 430
39 | CC(C)(C)OC(=O)CN1CC2(CCC(C(=O)Nc3cc(F)cc(Cl)c3)CC2)C1 [Example 56] | 513
40 | O=C(Nc1cc(F)cc(C(F)F)c1)C1CCC2(CC1)CN(CCC1CCCC1)C2 [Example 31] | 376
41 | N#CC1(CN2CC3(CCC(C(=O)Nc4cc(F)cc(C(F)F)c4)CC3)C2)CCCCC1 [Example 94] | 612
42 | CCC(C)(C)NC(=O)CN1CC2(CCC(C(=O)Nc3cc(F)cc(C(F)F)c3)CC2)C1 [Example 27] | 182
43 | CC(C)(NC(=O)CN1CC2(CCC(C(=O)Nc3cccc(OC(F)(F)F)c3)CC2)C1)C(F)(F)F [Example 70] | 333
44 | O=C(Nc1cccc(Cl)c1)C1CCC2(CC1)CN(CC(F)(F)C1CCCCC1)C2 [Example 101] | 488

test system: absence seizures; experiment: not given; details: patients treated with either of these drugs; cited from earlier work

Row | SMILES | intolerable side effects, patients affected [%]
45 | CCCC(CCC)C(=O)O [valproate] | 24
